Test results published in ChEMBL document CHEMBL1201862, “PubChem BioAssay data set” (2004).
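Cultured in 96-well plates, cells were exposed to test compound for 48 hours across five concentrations. GI50 is the concentration that inhibits growth by half.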 Active and inactive are the calls of the source. Rule as the data show it: active = GI50 up to about 1.1 µM and inactive = higher.

How the values were obtained:
Experiment in all cases: NCI-60 cell line screen, 48 h
A498 = tested on: A498
ACHN = tested on: ACHN
CCRF-CEM = tested on: CCRF-CEM
EKVX = tested on: EKVX
HCT-15 = tested on: HCT-15
M19-MEL = tested on: M19-MEL
MOLT-4 = tested on: MOLT-4
Malme-3M = tested on: Malme-3M
NCI-H522 = tested on: NCI-H522
OVCAR-4 = tested on: OVCAR-4
OVCAR-5 = tested on: OVCAR-5
OVCAR-8 = tested on: OVCAR-8
RPMI-8226 = tested on: RPMI-8226
SK-MEL-2 = tested on: SK-MEL-2
SNB-75 = tested on: SNB-75
TK-10 = tested on: TK-10
HOP-92 = tested on: HOP-92
HT-29 = tested on: HT-29
MCF7 = tested on: MCF7
PC-3 = tested on: PC-3

Row | SMILES | GI50 (A498) | GI50 (ACHN) | GI50 (CCRF-CEM) | GI50 (EKVX) | GI50 (HCT-15) [µM] | GI50 (M19-MEL) | GI50 (MOLT-4) | GI50 (Malme-3M) | GI50 (NCI-H522) | GI50 (OVCAR-4) | GI50 (OVCAR-5) | GI50 (OVCAR-8) | GI50 (RPMI-8226) | GI50 (SK-MEL-2) | GI50 (SNB-75) | GI50 (TK-10) | GI50 (HOP-92) | GI50 (HT-29) | GI50 (MCF7) | GI50 (PC-3)
1 | Cc1cc(C)nc(NS(=O)(=O)c2ccc(NC(=O)c3cccc4c(N)c5ccccc5nc34)cc2)n1 | > 100 µM (inactive) | > 100 µM (inactive) | 26.2 µM (inactive) | > 100 µM (inactive) | > 100 | > 100 µM (inactive) | 35 µM (inactive) | > 100 µM (inactive) | > 100 µM (inactive) | > 100 µM (inactive) | > 100 µM (inactive) | 65.8 µM (inactive) | 34.2 µM (inactive) | > 100 µM (inactive) | > 100 µM (inactive) | > 100 µM (inactive) | – | – | – | –
2 | CCN(CC)CCOC(=O)/C(=C/c1ccc(OC)cc1)c1cc(OC)c(OC)c(OC)c1 | 2.48 µM (inactive) | 7.67 µM (inactive) | 18.8 µM (inactive) | 31.5 µM (inactive) | 4.82 | 7.26 µM (inactive) | 24.5 µM (inactive) | 10.1 µM (inactive) | 2.75 µM (inactive) | 31.4 µM (inactive) | 16.4 µM (inactive) | 15.5 µM (inactive) | 16 µM (inactive) | – | 0.91 µM (active) | 20.3 µM (inactive) | 3.27 µM (inactive) | 1.92 µM (inactive) | – | –
3 | Clc1ccccc1C(n1cc(Br)cn1)n1cc(Br)cn1 | 17.1 µM (inactive) | 16.5 µM (inactive) | 20.9 µM (inactive) | – | > 10 | 14.4 µM (inactive) | 14.2 µM (inactive) | 17.2 µM (inactive) | 71.9 µM (inactive) | > 100 µM (inactive) | 11.4 µM (inactive) | 19.3 µM (inactive) | 13.6 µM (inactive) | 18.2 µM (inactive) | 5.81 µM (inactive) | 23.6 µM (inactive) | 7.48 µM (inactive) | 13.8 µM (inactive) | – | –
4 | CC(=O)O[C@]1(C)OC(=O)[C@@H](C)N1[N+](=O)[O-] | > 100 µM (inactive) | 60 µM (inactive) | 72.8 µM (inactive) | > 100 µM (inactive) | > 100 | > 100 µM (inactive) | 45.9 µM (inactive) | > 100 µM (inactive) | > 100 µM (inactive) | > 100 µM (inactive) | > 100 µM (inactive) | > 100 µM (inactive) | > 100 µM (inactive) | > 100 µM (inactive) | 57.1 µM (inactive) | > 100 µM (inactive) | – | > 100 µM (inactive) | – | –
5 | CC(=O)C1CC=C(C)CC1 (stereo not drawn) | > 100 µM (inactive) | > 100 µM (inactive) | > 100 µM (inactive) | > 100 µM (inactive) | > 100 | > 100 µM (inactive) | > 100 µM (inactive) | > 100 µM (inactive) | > 100 µM (inactive) | > 100 µM (inactive) | > 100 µM (inactive) | > 100 µM (inactive) | > 100 µM (inactive) | > 100 µM (inactive) | > 100 µM (inactive) | > 100 µM (inactive) | > 100 µM (inactive) | > 100 µM (inactive) | – | –
6 | O=C(Nc1ccc(Cl)cc1Cl)C(=O)C(C(=O)c1ccc2ccccc2c1)C1OC(=O)c2ccccc21 (stereo not drawn) | 6.7 µM (inactive) | 15.8 µM (inactive) | – | 15.9 µM (inactive) | 11.5 | 12.6 µM (inactive) | – | > 10 µM (inactive) | > 10 µM (inactive) | 10.1 µM (inactive) | 4.65 µM (inactive) | 6.34 µM (inactive) | 4.06 µM (inactive) | 13.7 µM (inactive) | – | – | 3.3 µM (inactive) | 15.7 µM (inactive) | – | –
7 | COc1cc2c(cc1OC)C(C(=O)O)C(c1ccccc1)N(C)C2=O (stereo not drawn) | > 100 µM (inactive) | > 100 µM (inactive) | > 100 µM (inactive) | > 100 µM (inactive) | – | > 100 µM (inactive) | > 100 µM (inactive) | > 100 µM (inactive) | > 100 µM (inactive) | > 100 µM (inactive) | > 100 µM (inactive) | > 100 µM (inactive) | > 100 µM (inactive) | > 100 µM (inactive) | > 100 µM (inactive) | > 100 µM (inactive) | – | > 100 µM (inactive) | – | –
8 | NCCOc1ccc(/C(=C(/Cl)c2ccccc2)c2ccccc2)cc1 | 19.1 µM (inactive) | 14 µM (inactive) | 7.11 µM (inactive) | 15.1 µM (inactive) | 6.55 | 10.7 µM (inactive) | 3.14 µM (inactive) | 9.27 µM (inactive) | 12.4 µM (inactive) | 13 µM (inactive) | 16.7 µM (inactive) | 14 µM (inactive) | 3.17 µM (inactive) | 14.4 µM (inactive) | 11.4 µM (inactive) | 12.9 µM (inactive) | 5.18 µM (inactive) | 3.14 µM (inactive) | – | –
9 | O=C(Nc1ccc(Nc2ccc(NC(=O)c3ccccc3)c3c2C(=O)c2ccccc2C3=O)c2c1C(=O)c1ccccc1C2=O)c1ccccc1 | > 100 µM (inactive) | > 100 µM (inactive) | > 100 µM (inactive) | > 100 µM (inactive) | > 100 | > 100 µM (inactive) | > 100 µM (inactive) | > 100 µM (inactive) | > 100 µM (inactive) | > 100 µM (inactive) | – | > 100 µM (inactive) | > 100 µM (inactive) | > 100 µM (inactive) | 35.6 µM (inactive) | > 100 µM (inactive) | – | – | – | –
10 | O=C(Nc1ccc(Cl)cc1)NS(=O)(=O)c1ccc2c(c1)CCC2 [SULOFENUR] | 45 µM (inactive) | 29.4 µM (inactive) | 29.9 µM (inactive) | 36.5 µM (inactive) | 35.6 | > 68.7 µM (inactive) | 26.4 µM (inactive) | 24.5 µM (inactive) | 27.9 µM (inactive) | 54.8 µM (inactive) | > 43.8 µM (inactive) | 40.8 µM (inactive) | 24.4 µM (inactive) | 43.8 µM (inactive) | > 55.6 µM (inactive) | 40.5 µM (inactive) | – | 61.1 µM (inactive) | 24.1 µM (inactive) | 19.1 µM (inactive)
11 | O=C1C=CC(=O)C2C1Cc1ccccc1C2c1ccccc1 (stereo not drawn) | 22.4 µM (inactive) | 50.4 µM (inactive) | 20.3 µM (inactive) | 31.1 µM (inactive) | 36.6 | 30.1 µM (inactive) | 32.7 µM (inactive) | 59.4 µM (inactive) | 20.9 µM (inactive) | 20.5 µM (inactive) | > 100 µM (inactive) | 25.9 µM (inactive) | 22.3 µM (inactive) | 27.8 µM (inactive) | 42.7 µM (inactive) | 74.1 µM (inactive) | 32 µM (inactive) | 37.8 µM (inactive) | – | –
12 | CC1=C(C(=O)Nc2ccccc2C)C(c2ccc([N+](=O)[O-])cc2)C(C(=O)Nc2ccccc2C)=C(C)N1 | 14 µM (inactive) | 30.2 µM (inactive) | 27.2 µM (inactive) | > 100 µM (inactive) | 56.5 | 64.1 µM (inactive) | 25.3 µM (inactive) | 42.7 µM (inactive) | 32 µM (inactive) | 41.8 µM (inactive) | > 100 µM (inactive) | > 100 µM (inactive) | 28.6 µM (inactive) | 38.2 µM (inactive) | 22.8 µM (inactive) | 46.1 µM (inactive) | – | 44.9 µM (inactive) | – | –
13 | COc1ccc(S(=O)(=O)N/N=C\c2cc([N+](=O)[O-])cc(I)c2O)c(OC)c1OC | 29.8 µM (inactive) | 29.9 µM (inactive) | 24.3 µM (inactive) | 29.9 µM (inactive) | 22.3 | 31.7 µM (inactive) | 25.1 µM (inactive) | 27.7 µM (inactive) | – | 28.4 µM (inactive) | 32.4 µM (inactive) | 34.4 µM (inactive) | 26.5 µM (inactive) | 21.4 µM (inactive) | 24.7 µM (inactive) | 40.4 µM (inactive) | 13.5 µM (inactive) | 32.2 µM (inactive) | – | –
14 | COC(=O)C(C)(C)/N=C/N(C)C | > 100 µM (inactive) | > 100 µM (inactive) | 72.6 µM (inactive) | > 100 µM (inactive) | > 100 | > 100 µM (inactive) | > 100 µM (inactive) | > 100 µM (inactive) | > 100 µM (inactive) | > 100 µM (inactive) | > 100 µM (inactive) | > 100 µM (inactive) | – | > 100 µM (inactive) | > 100 µM (inactive) | > 100 µM (inactive) | > 100 µM (inactive) | > 100 µM (inactive) | – | –
15 | O=C(/C=C/c1ccc(O)c(O)c1)c1ccc(O)cc1O [BUTEIN] | 17.7 µM (inactive) | 18 µM (inactive) | 3.75 µM (inactive) | 26.9 µM (inactive) | 16.3 | 14 µM (inactive) | 7.64 µM (inactive) | 13.9 µM (inactive) | 2.25 µM (inactive) | 19.1 µM (inactive) | 17.4 µM (inactive) | 17.9 µM (inactive) | 10.5 µM (inactive) | 14.9 µM (inactive) | 11.1 µM (inactive) | 19.4 µM (inactive) | 15.7 µM (inactive) | 17.5 µM (inactive) | 3.98 µM (inactive) | 19.6 µM (inactive)
16 | COC(=O)C1=C(c2ccc3c(c2)OCO3)O[C@H](c2cc(OC)c(OC)c(OC)c2)[C@H]1COC(C)=O | 0.352 µM (active) | 4.91 µM (inactive) | 7.87 µM (inactive) | 38.3 µM (inactive) | 5.68 | 2.45 µM (inactive) | 3.03 µM (inactive) | 1.99 µM (inactive) | – | 7.48 µM (inactive) | 41.8 µM (inactive) | 5.04 µM (inactive) | 11.3 µM (inactive) | 12.6 µM (inactive) | 4.06 µM (inactive) | 13.5 µM (inactive) | 2.67 µM (inactive) | 2.53 µM (inactive) | – | –
